In publication PMC8080350, “Rhodanine-3-acetamide derivatives as aldose and aldehyde reductase inhibitors to treat diabetic complications: synthesis, biological evaluation, molecular docking and simulation studies” (BMC Chemistry, 2021):
Where two headings read alike, the source gives them in different places.

Assays:
[1] = target: aldehyde reductase (ALR1) (Ovis aries, UniProt A0ACI6RLT8); experiment: ALR1 enzyme inhibition assay; format: biochemical, lamb; conditions: for selectivity towards ALR1 over ALR2: from IC50 values on ALR1 and ALR2
Method: (§1) The newly synthesized of 5-benzylidene rhodanine-3-acetamide derivatives 3(a–g) were evaluated for in vitro enzyme inhibitory potential on aldehyde and aldose reductase enzymes. […] IC50 ± SEM (µM) values were calculated for the compounds showing more than 50% inhibition against both the isozymes, (Table 1).
(§2) All required chemicals used in the enzyme extraction procedure were of high analytical grade. Enzyme inhibitory assay was performed on ELISA microplate reader at 340 nm and 96 well-plates were used for the sample analysis. Micropipettes from Gilson were used for sample loading. Sodium-D-glucoronate and D,L-glyceraldehyde were used as substrates along with a cofactor i.e. NADPH (nicotinamide adenine dinucleotide phosphate) from Sigma Aldrich.
Aldehyde reductase enzyme was extracted from lamb kidney and the cortical part was separated carefully. The cortex was homogenized in triple volume of extraction buffer (2.0 mM EDTA, 0.25 M sucrose, 10 mM sodium phosphate and 2.5 mM β-mercaptoethanol at pH 7.2). The homogenate was centrifuged at 12,000 rpm at 4 °C for 30 min, the insoluble precipitates were discarded and the supernatant was saturated with 40%, 50% and 75% ammonium sulfate respectively and after each addition the solution was centrifuged at 12,000 rpm at 4 °C for 30 min, each time the pallet was discarded and for the last saturation the supernatant was taken and dialyzed overnight in extraction buffer. Next day the protein content was calculated via Bradford method and the crude aldehyde reductase was stored at − 80 °C [30].
The assay was performed on ELISA (Bio-Tek ELx800TM Instrument, Inc. USA) based spectrophotometric analysis in 96 well plate. The assay mixture was composed of 20 µL buffer (100 mM potassium dihydrogen phosphate pH 6.2), 10 µL test compound (1 mM), 70 µL enzyme and incubated for 10 min at 37 °C followed by addition of 40 µL Glucoronate 50 mM (as a substrate) and 50 µL (0.5 mM) NADPH (nicotinamide adenine dinucleotide phosphate) as a co-factor. After 30 min incubation optical density was measured at 340 nm.
(§3) Results were analyzed by graph pad prism® software to calculate IC50 and percentage inhibition was calculated by the following formula.
(§4) % Inhibition = […].

aldose reductase (ALR2) = target: T1, aldose reductase (ALR2) (Bos taurus, UniProt P16116); experiment: ALR2 enzyme inhibition assay; format: biochemical, calf; conditions: for IC50: substrate D,L-glyceraldehyde, cofactor NADPH, pH 6.2, 340 nm, read-out: ALR2 IC50 ± SEM
T1 construct: The enzyme aldose reductase was extracted from calf lenses; from tissue; host or cells: calf lenses
Method: as §1, §2
The enzyme aldose reductase was extracted from calf lenses. 200–300 g lenses were added to triple volume of cold water and homogenized for 20 min. The homogenate was then centrifuged at 10,000 rpm for 15 min at 4 °C. The insoluble precipitates were discarded and the supernatant was saturated with 70% ammonium sulfate and after centrifugation at 10,000 rpm at 4 °C for 15 min the supernatant was dialyzed overnight and the protein contents was calculated via Bradford method and the crude aldose reductase was stored at −80 °C [31].
The assay was performed on ELISA (Bio-Tek ELx800™ Instrument, Inc. USA) based spectrophotometric analysis in 96 well plate. The assay mixture was composed of 20 µL buffer (100 mM potassium dihydrogen phosphate pH 6.2), 10 µL test compound (1 mM), 70 µL enzyme and incubated for 10 min at 37 °C followed by addition of 40 µL substrate (D,L-glyceraldehyde 50 mM for ALR2) and 50 µL NADPH (0.5 mM) (nicotinamide adenine dinucleotide phosphate) as a co-factor. After 30 min incubation optical density was measured at 340 nm.
as §3, §4

[2] = substrate sodium D-glucuronate, cofactor NADPH, pH 6.2, 340 nm, read-out: ALR1 IC50 ± SEM

aldehyde reductase (ALR1), sequence (A0ACI6RLT8 entry or part of it): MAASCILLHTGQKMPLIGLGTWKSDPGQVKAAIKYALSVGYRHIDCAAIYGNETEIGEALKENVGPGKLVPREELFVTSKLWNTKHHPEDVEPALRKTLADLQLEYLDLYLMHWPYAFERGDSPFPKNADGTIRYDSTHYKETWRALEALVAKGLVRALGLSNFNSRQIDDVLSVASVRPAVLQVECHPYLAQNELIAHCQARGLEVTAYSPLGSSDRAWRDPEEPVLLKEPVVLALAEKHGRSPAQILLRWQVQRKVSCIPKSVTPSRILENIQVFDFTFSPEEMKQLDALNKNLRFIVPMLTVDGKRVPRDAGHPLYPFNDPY

Compound | IC50 [1, 2] [µM] | melting point [°C] | IC50 (aldose reductase (ALR2)) [µM] | selectivity towards ALR2 over ALR1 (aldose reductase (ALR2); from IC50 values on ALR1 and ALR2) | IC50 [1] [µM] | selectivity towards ALR1 over ALR2 [1]
CCCC(CCC)C(=O)O [Valproic acid, reference compound] | – | – | – | – | 57.4 ± 0.89 | –
(Z) 5-(4-hydroxy-3-methoxybenzylidene)-3-(2-pyrrolidino-2-oxoethyl)-2-thioxothiazolidin-4-one [Compound 3g] | 2.22 ± 0.04 | – | 2.42 ± 0.03 | – | – | –
COc1ccc(/C=C2\SC(=S)N(CC(=O)N3CCOCC3)C2=O)cc1 [Compound 3f, (Z) 5-(4-methoxybenzylidene)-3-(2-morpholino-2-oxoethyl)-2-thioxothiazolidin-4-one] | 2.18 ± 0.03 | 203 to 205 | 0.12 ± 0.01 | selective towards ALR2 | – | –
COc1cc(/C=C2\SC(=S)N(CC(=O)Nc3ccccc3)C2=O)ccc1O [Compound 3a, (Z)-5-(4-hydroxy-3-methoxybenzylidene)-3-(2-anilino-2-oxoethyl)-2-thioxothiazolidin-4-one] | 5.38 ± 0.07 | – | 0.25 ± 0.04 | – | – | –
COc1ccc(/C=C2\SC(=S)N(CC(=O)Nc3ccccc3)C2=O)cc1 [Compound 3e, (Z) 5-(4-methoxybenzylidene)-3-(2-anilino-2-oxoethyl)-2-thioxothiazolidin-4-one] | 2.87 ± 0.01 | 190 to 192 | 12.71 ± 0.09 | – | – | more selective and potent inhibitors of ALR1

Continued by falling IC50 (aldose reductase (ALR2)), values first:

IC50 [1, 2] [µM] | melting point [°C] | IC50 (aldose reductase (ALR2)) [µM] | selectivity towards ALR2 over ALR1 (aldose reductase (ALR2); from IC50 values on ALR1 and ALR2) | Compound | IC50 [1] [µM] | selectivity towards ALR1 over ALR2 [1]
6.07 ± 0.05 | 211 to 213 | 19.2 ± 0.08 | – | COc1cc(/C=C2\SC(=S)N(CC(=O)N3CCOCC3)C2=O)ccc1O [Compound 3b, (Z)-5-(4-hydroxy-3-methoxybenzylidene)-3-(2-morpholino-2-oxoethyl)-2-thioxothiazolidin-4-one] | – | –
3.76 ± 0.09 | 217 to 219 | 7.36 ± 0.02 | – | COc1cc(/C=C2\SC(=S)N(CC(=O)Nc3ccc(C(=O)O)cc3)C2=O)ccc1O [Compound 3d, 4-({[(Z)-5-(4-hydroxy-3-methoxybenzylidene)-4-oxo-2-thioxo-1,3-thiazolidin-3-yl]acetyl}amino)benzoic acid] | – | more selective and potent inhibitors of ALR1
2.38 ± 0.02 | – | 6.38 ± 0.01 | – | COc1cc(/C=C2\SC(=S)N(CC(=O)Nc3ccc(C(=O)O)c(O)c3)C2=O)ccc1O [Compound 3c, 2-Hydroxy-4-({[(Z)-5-(4-hydroxy-3-methoxybenzylidene)-4-oxo-2-thioxo-1,3-thiazolidin-3-yl]acetyl}amino)benzoic acid] | – | –
– | – | 0.29 ± 0.08 | – | CC1=C(CC(=O)O)c2cc(F)ccc2/C1=C\c1ccc([S+](C)[O-])cc1 (centres unmarked) [Sulindac, reference compound] | – | –
